This note sets out measurements from patent US20250090507A1, “Methods of Treating Cancer With a B-RAF Inhibitor” (MapKure, LLC, priority 2022, published 2025).

Structures are written as SMILES.

A short description of series [1]: pKa. The series is classed as physicochemical.
For series [2], the system named is circulating tumor DNA. The experiment in a line: Circulating tumor DNA variant allele frequency in melanoma pts. In kind it is in vivo, human. The following applies: ctDNA, subset of melanoma pts. From the text: Peripheral blood samples were collected at specified timepoints as described in the schedule of assessments to be used for the longitudinal evaluation ctDNA by molecular (NGS) methodologies as pharmacodynamic biomarkers associated with response or resistance.

In series [1], `O=C1CCc2c(Oc3ccc4c(c3)[C@H]3[C@H](NC(=O)Nc5cc(F)c(F)cc5F)[C@H]3O4)ccnc2N1` [Compound A, 1-((1S,1aS,6bS)-5-((7-oxo-5,6,7,8-tetrahydro-1,8-naphthyridin-4-yl)oxy)-1a,6b-dihydro-1H-cyclopropa[b]benzofuran-1-yl)-3-(2,4,5-trifluorophenyl)urea] yielded a pKa of 5.28. Moreover, the “maximum reduction of VAF, range” value in series [2] is reported as 98.7-99.9%. Besides, the “maximum reduction of variant allele frequency (VAF) of detected mutations” value in series [2] (across evaluated subjects) was 99.3%.

In general, pKa refers to the pH at which an ionisable group is half protonated.
